# Test results reported in ChEMBL document CHEMBL1135094, “Potent, orally active inhibitors of lipoprotein-associated phospholipase A(2): 1-(biphenylmethylamidoalkyl)-pyrimidones” (Bioorg Med Chem Lett, 2002).
# Biological target: T1, Platelet-activating factor acetylhydrolase (Homo sapiens, UniProt Q13093)
# T1 sequence (Q13093 whole entry): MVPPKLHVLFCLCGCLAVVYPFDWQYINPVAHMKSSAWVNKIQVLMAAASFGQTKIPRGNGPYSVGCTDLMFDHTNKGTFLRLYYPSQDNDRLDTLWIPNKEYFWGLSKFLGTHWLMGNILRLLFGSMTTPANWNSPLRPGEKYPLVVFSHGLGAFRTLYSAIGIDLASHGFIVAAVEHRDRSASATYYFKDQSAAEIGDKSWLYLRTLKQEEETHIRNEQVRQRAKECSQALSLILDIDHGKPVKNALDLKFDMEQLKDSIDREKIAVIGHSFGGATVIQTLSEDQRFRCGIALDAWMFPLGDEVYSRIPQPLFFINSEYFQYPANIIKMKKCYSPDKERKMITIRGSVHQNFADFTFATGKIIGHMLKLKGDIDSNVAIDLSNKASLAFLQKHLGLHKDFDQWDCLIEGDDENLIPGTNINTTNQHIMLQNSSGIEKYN
# Experiment: Inhibitory activity against recombinant human Lp-PLA2 (Lp-PLA2).
row,SMILES,IC50
1,COc1ncc(Cc2cn(CC(=O)N(C)Cc3ccc(-c4ccc(C(F)(F)F)cc4)cc3)c(SCc3ccc(F)cc3)nc2=O)cn1,0.2 nM
2,Cn1cc(Cc2cn(CCCC(=O)NCc3ccc(-c4ccc(F)cc4)cc3)c(SCc3ccc(F)cc3)nc2=O)cn1,4 nM
3,COc1ncc(Cc2cn(CC(=O)N(C)Cc3ccc(-c4ccc(F)cc4)cc3)c(SCc3ccc(F)cc3)nc2=O)cn1,0.6 nM
4,COc1ncc(Cc2cn(CCCC(=O)N(C)Cc3ccc(-c4ccc(Cl)cc4)cc3)c(SCc3ccc(F)cc3)nc2=O)cn1,5 nM
5,O=C(Cn1cc(Cc2cncnc2)c(=O)nc1SCc1ccc(F)cc1)NCc1ccccc1-c1ccccc1,194 nM
6,O=C(Cn1cc(Cc2cncnc2)c(=O)nc1SCc1ccc(F)cc1)NCc1ccc(-c2ccccc2)cc1,4 nM
7,CN(Cc1ccc(-c2ccccc2)cc1)C(=O)Cn1cc(Cc2cncnc2)c(=O)nc1SCc1ccc(F)cc1,8 nM
8,CCn1cc(Cc2cn(CC(=O)N(C)Cc3ccc(-c4ccc(Cl)cc4)cc3)c(SCc3ccc(F)cc3)nc2=O)cnc1=O,0.5 nM
9,O=C(Cn1cc(Cc2cncnc2)c(=O)nc1SCc1ccc(F)cc1)NCc1cccc(-c2ccccc2)c1,24 nM
10,CN(Cc1ccc(-c2ccc(Cl)cc2)cc1)C(=O)Cn1cc(Cc2cnc(N3CCOCC3)nc2)c(=O)nc1SCc1ccc(F)cc1,1 nM
11,COc1ncc(Cc2cn(CC(=O)NCc3ccc(-c4ccc(Cl)cc4)cc3)c(SCc3ccc(F)cc3)nc2=O)cn1,0.5 nM
12,CN(Cc1ccc(-c2ccc(F)cc2)cc1)C(=O)CCCn1cc(Cc2cnn(C)c2)c(=O)nc1SCc1ccc(F)cc1,8 nM

# More lines, in order of falling IC50, values ahead:
row,IC50,SMILES
1,5 nM,Cn1cc(Cc2cn(CCCC(=O)NCc3ccc(-c4ccccc4)cc3)c(SCc3ccc(F)cc3)nc2=O)cn1
2,5 nM,CN(Cc1ccc(-c2ccc(Cl)cc2)cc1)C(=O)Cn1cc(Cc2cnc(C(F)(F)F)nc2)c(=O)nc1SCc1ccc(F)cc1
3,4 nM,COc1ncc(Cc2cn(CCCC(=O)NCc3ccc(-c4ccccc4)cc3)c(SCc3ccc(F)cc3)nc2=O)cn1
4,4 nM,COc1ncc(Cc2cn(CCCC(=O)NCc3ccc(-c4ccc(Cl)cc4)cc3)c(SCc3ccc(F)cc3)nc2=O)cn1
5,0.8 nM,CN(Cc1ccc(-c2ccc(Cl)cc2)cc1)C(=O)Cn1cc(Cc2cnc(N(C)C)nc2)c(=O)nc1SCc1ccc(F)cc1
